# Measured values: article PMC7811009, “Oxytocin modulates local topography of human functional connectome in healthy men at rest” (Communications Biology, 2021)
# Like-named read-outs stand apart in the source and are kept apart here.
# What was measured:
# [1] = Plasma oxytocin concentration by radioimmunoassay after 40 IU intranasal (spray or nebuliser) or 10 IU intravenous oxytocin; format: in vivo, human; settings: for level at 0.95 h: male, human, 57 minutes post-administration (from last treatment offset), read-out: Concentration of plasmatic oxytocin
# Excerpt: We employed a double-blind, placebo-controlled, triple-dummy, crossover design. Participants visited our centre for 4 experimental sessions spaced 8.90 days apart on average (SD = 5.65, range: 5–28 days). In each session, participants received treatment via all three administration routes, in one of two fixed sequences: either nebuliser/intravenous infusion/standard nasal spray, or standard nasal spray/intravenous infusion/nebuliser, according to the treatment administration scheme presented in Fig. 8 (upper panel). In three out of four sessions only one route of administration contained the active drug; in the fourth session, all routes delivered placebo or saline. Participants were randomly allocated to a treatment order (i.e. a specific plan regarding which route delivered the active drug in each experimental session) that was determined using a Latin square design. Unbeknown to the participants, the first treatment administration method in each session always contained placebo (see Fig. 8, upper panel), while intranasal (spray or nebuliser) oxytocin was only delivered with the third treatment administration. This protocol maintained double-blinding while avoiding the potential washing-out of intranasally deposited oxytocin (as might have been the case if oxytocin had been administered at the first treatment administration point and placebo at the third administration point). All sessions were conducted during the morning to minimise potential circadian variability in resting brain activity[79] or oxytocin levels.
# For the intranasal administrations, participants self-administered a nominal dose of 40 IU oxytocin (Syntocinon; 40 IU/ml; Novartis, Basel, Switzerland), one of the highest clinically applicable doses[81] that would insure that lack of effects on the brain are unlikely to result from under-dosing. We have shown that 40 IU delivered with a standard nasal spray induce robust rCBF changes in two different cohorts of healthy men using between-[12] and within-subjects[11] designs. Work from others have also reported this dose to modulate resting functional connectivity[19],[82]. For the intranasal administration, we used specially manufactured placebo that contained the same excipients as Syntocinon except for oxytocin. Participants self-administered intranasal oxytocin or placebo with the nasal spray or nebuliser following under the supervision of the lead experimenter who ensured the correct application of the devices. Additionally, all participants had been trained during the screening visit in the correct administration procedures.
# Participants followed our standard in-house protocol that we have used consistently across all of our studies and is consistent with the guidelines outlined by Guastella et al. (2013)[83]. […] Participants blocked opposite nostril while administering each puff, and each puff was followed by an immediate, brief, sharp, snort.
# Participants self-administered 40 IU oxytocin (Syntocinon) or placebo, by operating the SINUS nebulizer for 3 min in each nostril (6 min in total), according to instructions. The correct application of the device was confirmed by determining gravimetrically the administered volume. Participants were instructed to breathe using only their mouth and to keep a constant breathing rate with their soft palate closed, to minimize delivery to the lungs. Previous studies using this nebuliser[34] have shown up to 9.0% (±1.9%) of the total administered dose to be delivered to the olfactory region, 15.7% (±2.4%) to the upper nose.
# For the intravenous administration, we delivered 10 IU oxytocin (Syntocinon injection formulation, 10 IU/ml, Alliance, UK) or saline via slow infusion over 10 min (1IU/min). A 50-ml syringe was loaded with either 32 ml of 0.9% sodium chloride (placebo) or 30 ml of 0.9% sodium chloride with […] of Syntocinon (10 IU/ml). […]
# [2] = cited from earlier work
# Excerpt: It is not yet clear which precise mechanisms mediate the effects of intravenous oxytocin on brain function. […] At least three mechanisms have been postulated. First, it is possible that the direct peripheral effects of oxytocin on oxytocin receptors expressed in vegetative territories, such as the heart, may be an indirect source of changes in the brain.
# [3] = system: amygdala/parahippocampal gyrus and anterior cingulate; settings: same dose of intravenous oxytocin (10 IU), same cohort; cited from earlier work
# Excerpt: Our second key finding was the observation that the regional effects of exogenous oxytocin, compared to placebo, vary as a function of the route/method of administration. Particularly striking was the observation that the intravenous administration of oxytocin induced widespread changes in regional functional connectivity across many areas potentially relevant to explaining the effects of intranasal oxytocin on human behaviour and which have been classically ascribed to direct nose-to-brain transport. One of these areas is the amygdala, where we found decreased betweenness-centrality after int ...
smiles,measurement,setting,value
CC[C@H](C)[C@@H]1NC(=O)[C@H](Cc2ccc(O)cc2)NC(=O)[C@@H](N)CSSC[C@@H](C(=O)N2CCC[C@H]2C(=O)N[C@@H](CC(C)C)C(=O)NCC(N)=O)NC(=O)[C@H](CC(N)=O)NC(=O)[C@H](CCC(N)=O)NC1=O [oxytocin],"Plasmatic oxytocin concentrations at post-administration, intravenous versus other conditions","[1]; 57 min post-administration, all pTukey < 0.010",higher in the intravenous condition than in all the other three treatment conditions
same,"Plasma oxytocin concentrations, spray versus nebuliser","[1]; 57 min post-administration, pTukey = 1.000",did not differ
same,Plasma oxytocin concentration at 57 min post-administration compared to baseline,"[1]; Intranasal (spray, nebuliser) and intravenous administrations, all pTukey < 0.010",increased plasma oxytocin concentration
same,Concentration of plasmatic oxytocin,"[1]; Nebuliser (40 IU intranasal, PARI SINUS nebuliser), 57 minutes post-administration, plasma, radioimmunoassay after extraction, mean, n = 16 healthy men",7.207 pg/mL
same,level at 0.95 h,"[1]; inhaled or intranasal, Spray (40 IU intranasal, standard nasal spray), plasma, radioimmunoassay after extraction, mean, n = 16 healthy men",7.03 pg/mL
same,level at 0.95 h,"[1]; Intravenous (10 IU infusion over 10 min, 1IU/min), plasma, radioimmunoassay after extraction, mean, n = 16 healthy men",16.4 pg/mL
same,Amount crossing the blood–brain barrier (BBB),[2],very small amounts
same,Effects on heart-rate or heart-rate variability,[2]; same doses/methods and cohort of participants,absence of effects
same,Effect on rCBF,[3],decreases rCBF in the amygdala/parahippocampal gyrus and in the anterior cingulate
